Experiment [1] deals with Sodium-dependent dopamine transporter (Rattus norvegicus, UniProt P23977). The experiment can be described thus: Displacement of [3H]WIN-35428 from DAT in Sprague-Dawley rat brain after 2 hrs by liquid scintillation analysis.
The target of another experiment is Transporter (Rattus norvegicus, UniProt Q63380). The experiment can be described thus: Displacement of [3H]nisoxetine from NAT in Sprague-Dawley rat brain after 4 hrs by liquid scintillation analysis. (In a radioligand displacement assay an active substance lowers the binding of a labelled ligand.)
The target in experiment [2] is Sodium-dependent serotonin transporter (Rattus norvegicus, UniProt P31652). The experiment can be described thus: Displacement of [3H]citalopram from SERT in Sprague-Dawley rat brain after 2 hrs by liquid scintillation analysis.

The term Ki denotes the equilibrium dissociation constant of an inhibitor or competing ligand from its target. A high value points to lower affinity.

The structures appear in SMILES notation.

Sequence of Transporter (Q63380 whole entry): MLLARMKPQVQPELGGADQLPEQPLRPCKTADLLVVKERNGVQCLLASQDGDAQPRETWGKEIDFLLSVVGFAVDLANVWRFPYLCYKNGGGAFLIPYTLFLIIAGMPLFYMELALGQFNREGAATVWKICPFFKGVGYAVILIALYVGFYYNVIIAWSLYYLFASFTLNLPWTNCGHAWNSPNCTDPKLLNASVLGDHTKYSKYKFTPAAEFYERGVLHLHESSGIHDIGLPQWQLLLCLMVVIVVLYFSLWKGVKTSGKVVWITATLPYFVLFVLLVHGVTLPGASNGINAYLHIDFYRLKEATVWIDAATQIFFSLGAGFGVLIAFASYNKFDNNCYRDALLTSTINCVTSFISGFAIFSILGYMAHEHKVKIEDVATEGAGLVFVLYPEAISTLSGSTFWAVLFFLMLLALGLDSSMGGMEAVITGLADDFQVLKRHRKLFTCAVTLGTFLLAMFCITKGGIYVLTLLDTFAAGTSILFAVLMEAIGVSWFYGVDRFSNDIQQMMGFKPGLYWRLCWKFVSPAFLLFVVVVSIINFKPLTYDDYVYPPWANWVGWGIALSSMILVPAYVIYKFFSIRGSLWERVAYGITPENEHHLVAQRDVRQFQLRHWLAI
Sequence of Sodium-dependent serotonin transporter (P31652 whole entry): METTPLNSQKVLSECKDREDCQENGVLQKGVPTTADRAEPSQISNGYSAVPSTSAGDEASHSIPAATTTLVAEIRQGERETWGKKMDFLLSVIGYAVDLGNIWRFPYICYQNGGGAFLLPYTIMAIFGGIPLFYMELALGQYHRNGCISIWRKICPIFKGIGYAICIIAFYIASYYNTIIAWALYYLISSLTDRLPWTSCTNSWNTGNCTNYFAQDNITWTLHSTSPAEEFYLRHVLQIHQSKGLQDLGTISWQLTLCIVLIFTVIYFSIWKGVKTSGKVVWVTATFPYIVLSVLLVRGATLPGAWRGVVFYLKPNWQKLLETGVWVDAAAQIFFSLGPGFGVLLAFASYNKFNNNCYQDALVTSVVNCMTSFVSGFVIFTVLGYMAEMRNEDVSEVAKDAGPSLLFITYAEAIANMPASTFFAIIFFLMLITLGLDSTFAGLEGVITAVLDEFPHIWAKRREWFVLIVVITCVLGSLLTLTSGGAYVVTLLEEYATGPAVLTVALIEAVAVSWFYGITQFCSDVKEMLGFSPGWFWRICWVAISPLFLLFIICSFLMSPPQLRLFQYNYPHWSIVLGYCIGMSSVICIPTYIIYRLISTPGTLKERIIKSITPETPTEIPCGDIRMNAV
Sequence of Sodium-dependent dopamine transporter (P23977 whole entry): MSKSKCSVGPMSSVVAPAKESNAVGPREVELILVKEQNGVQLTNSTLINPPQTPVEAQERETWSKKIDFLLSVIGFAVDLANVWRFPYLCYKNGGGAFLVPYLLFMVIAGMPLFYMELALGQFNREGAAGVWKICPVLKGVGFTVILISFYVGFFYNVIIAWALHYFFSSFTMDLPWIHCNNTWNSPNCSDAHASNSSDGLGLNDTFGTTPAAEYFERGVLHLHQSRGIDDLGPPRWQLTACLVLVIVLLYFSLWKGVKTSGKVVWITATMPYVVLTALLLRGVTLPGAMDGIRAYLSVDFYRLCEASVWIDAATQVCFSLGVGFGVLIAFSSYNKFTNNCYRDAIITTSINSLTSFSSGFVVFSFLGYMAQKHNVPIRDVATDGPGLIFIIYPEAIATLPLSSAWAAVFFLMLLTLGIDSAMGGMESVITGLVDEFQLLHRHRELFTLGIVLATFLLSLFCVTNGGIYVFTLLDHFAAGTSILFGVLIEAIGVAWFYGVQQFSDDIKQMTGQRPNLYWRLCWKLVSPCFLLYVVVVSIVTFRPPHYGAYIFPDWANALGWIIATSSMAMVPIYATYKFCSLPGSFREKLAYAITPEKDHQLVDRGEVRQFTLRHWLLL

Consider `Ic1ccc(O[C@@H](c2ccccc2)[C@H]2CNCCO2)cc1` [(2R,3S)-2-[(4-Iodophenoxy)phenylmethyl]morpholine], for which the Ki in experiment [1] stood at 2100 nM; at Transporter it was 1100 nM; in experiment [2] it was 34.5 nM.

For `Ic1cccc(O[C@@H](c2ccccc2)[C@H]2CNCCO2)c1` [(2R,3S)-2-[(3-Iodophenoxy)phenylmethyl]morpholine], the figures for the Ki (in experiment [1]; on Transporter; in experiment [2]) were 1900 nM, 1700 nM and 154 nM, respectively.

Regarding `Ic1ccccc1O[C@@H](c1ccccc1)[C@H]1CNCCO1` [(2R,3S)-2-[(2-Iodophenoxy)phenylmethyl]morpholine], the values for the Ki (in experiment [1]; on Transporter; in experiment [2]) were 526 nM, 8.4 nM and 51.5 nM, respectively.

These data come from BindingDB's records for doi:10.1016/j.bmcl.2009.07.064 (University of Glasgow, 2009).
